Laboratory results taken from patent US20150045610A1, “METHOD OF MODIFYING SPERMATOGENESIS, SPERMIOGENESIS AND/OR FERTILITY IN MAMMALS” (Monell Chemical Senses Center, priority 2012, published 2015).
Each block holds one compound with its values, some of them ahead of it.

Legend:
[1] = target: T1, humanized mhT1R3 (Homo sapiens, UniProt Q7RTX0, A109T/A120V/A176D/A197V/A198V/A228S/A231N/A248T/A280V/A282S/A302S/A412V/A417V/A46T/A537T/C375D/D124S/D249S/D250G/D364H/D419E/D470T/D491G/D88A/DEL352-352/DEL488-489/E172D/E199T/E203N/E217D/E356N/E45S/E481Q/E505D/E525K/E545Q/F540P/F555L/G168S/G205S/G311T/G314N/G355L/G360D/G414H/G438R/G439D/G463S/G50T/G542N/H261R/H278R/H281Y/H332P/I485M/I536F/INS376MLQNLSSG/K32Q/K339E/K422L/K494V/K86G/L173R/L245Q/L272V/L29F/L354S/L385Q/L433M/L458M/L483S/L71F/L74M/M151L/M315I/M318V/M31A/N285S/N386L/N532H/N68L/P112S/P246H/P335S/P416H/P420H/P441T/P60I/Q221E/Q257L/Q317R/Q330L/Q336H/Q359L/Q372R/Q418S/Q504K/Q531K/R123Q/R247D/R252Q/R291G/R30K/R357A/R443Q/R467V/R473T/R479Q/R482Q/R486Y/R498Q/R52N/R550K/R553A/R556P/R560K/R56Q/S251Q/S267K/S289H/S290H/S392A/S446A/S447E/S464P/S477T/S490P/S53Q/S559P/S58N/S67P/T195Q/T346A/T377L/T390I/T434S/T480L/T63N/V152I/V277A/V366M/V36I/V381L/V393T/V437A/V465T/V61P/W72L); assay: sweet taste preference of transgenic mice expressing humanized T1R3; assay type: in vivo, mouse
T1 construct: the extracellular domain is of mouse origin and the transmembrane and intracellular domains of human origin; mouse T1R3 extracellular domain (fusion partner replacing the human extracellular domain); expressed in transfected cells; host or cells: transgenic mice (Line 7, 9, 7c) on T1R3-null background; transgene under 13 kb T1R3 promoter, followed by IRES-eGFP
T1 sequence (Q7RTX0 with tags, fused parts or gaps L29F/R30K/M31A/K32Q/V36I/E45S/A46T/G50T/R52N/S53Q/R56Q/S58N/P60I/V61P/T63N/S67P/N68L/L71F/W72L/L74M/K86G/D88A/A109T/P112S/A120V/R123Q/D124S/M151L/V152I/G168S/E172D/L173R/A176D/T195Q/A197V/A198V/E199T/E203N/G205S/E217D/Q221E/A228S/A231N/L245Q/P246H/R247D/A248T/D249S/D250G/S251Q/R252Q/Q257L/H261R/S267K/L272V/V277A/H278R/A280V/H281Y/A282S/N285S/S289H/S290H/R291G/A302S/G311T/G314N/M315I/Q317R/M318V/Q330L/H332P/P335S/Q336H/K339E/T346A/DEL352-352/L354S/G355L/E356N/R357A/Q359L/G360D/D364H/V366M/Q372R/C375D/INS376MLQNLSSG/T377L/V381L/L385Q/N386L/T390I/S392A/V393T/A412V/G414H/P416H/A417V/Q418S/D419E/P420H/K422L/L433M/T434S/V437A/G438R/G439D/P441T/R443Q/S446A/S447E/L458M/G463S/S464P/V465T/R467V/D470T/R473T/S477T/R479Q/T480L/E481Q/R482Q/L483S/I485M/R486Y/DEL488-489/S490P/D491G/K494V/R498Q/Q504K/E505D/E525K/Q531K/N532H/I536F/A537T/F540P/G542N/E545Q/R550K/R553A/F555L/R556P/S559P/R560K limits assumed): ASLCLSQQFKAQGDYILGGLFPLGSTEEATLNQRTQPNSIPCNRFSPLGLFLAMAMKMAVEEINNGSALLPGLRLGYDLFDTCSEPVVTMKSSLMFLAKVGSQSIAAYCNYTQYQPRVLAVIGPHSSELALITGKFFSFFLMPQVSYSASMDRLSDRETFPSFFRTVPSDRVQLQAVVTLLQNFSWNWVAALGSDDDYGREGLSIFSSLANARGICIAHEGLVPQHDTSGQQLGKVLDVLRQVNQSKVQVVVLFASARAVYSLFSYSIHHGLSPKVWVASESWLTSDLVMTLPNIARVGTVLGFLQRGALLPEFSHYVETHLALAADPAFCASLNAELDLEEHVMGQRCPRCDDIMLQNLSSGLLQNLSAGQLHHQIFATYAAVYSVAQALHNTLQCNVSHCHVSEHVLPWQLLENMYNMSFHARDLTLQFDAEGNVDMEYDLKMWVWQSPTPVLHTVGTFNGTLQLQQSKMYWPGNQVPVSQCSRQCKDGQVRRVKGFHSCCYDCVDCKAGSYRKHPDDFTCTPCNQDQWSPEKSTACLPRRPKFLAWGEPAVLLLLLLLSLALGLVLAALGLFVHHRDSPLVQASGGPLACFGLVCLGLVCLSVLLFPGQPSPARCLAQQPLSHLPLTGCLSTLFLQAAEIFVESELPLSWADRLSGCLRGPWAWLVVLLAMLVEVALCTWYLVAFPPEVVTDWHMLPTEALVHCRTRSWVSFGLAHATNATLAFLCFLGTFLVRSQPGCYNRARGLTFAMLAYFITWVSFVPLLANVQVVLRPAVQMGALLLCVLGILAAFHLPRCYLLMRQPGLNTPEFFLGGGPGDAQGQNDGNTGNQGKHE
T1 sequence (Q925I4 20-843 partner): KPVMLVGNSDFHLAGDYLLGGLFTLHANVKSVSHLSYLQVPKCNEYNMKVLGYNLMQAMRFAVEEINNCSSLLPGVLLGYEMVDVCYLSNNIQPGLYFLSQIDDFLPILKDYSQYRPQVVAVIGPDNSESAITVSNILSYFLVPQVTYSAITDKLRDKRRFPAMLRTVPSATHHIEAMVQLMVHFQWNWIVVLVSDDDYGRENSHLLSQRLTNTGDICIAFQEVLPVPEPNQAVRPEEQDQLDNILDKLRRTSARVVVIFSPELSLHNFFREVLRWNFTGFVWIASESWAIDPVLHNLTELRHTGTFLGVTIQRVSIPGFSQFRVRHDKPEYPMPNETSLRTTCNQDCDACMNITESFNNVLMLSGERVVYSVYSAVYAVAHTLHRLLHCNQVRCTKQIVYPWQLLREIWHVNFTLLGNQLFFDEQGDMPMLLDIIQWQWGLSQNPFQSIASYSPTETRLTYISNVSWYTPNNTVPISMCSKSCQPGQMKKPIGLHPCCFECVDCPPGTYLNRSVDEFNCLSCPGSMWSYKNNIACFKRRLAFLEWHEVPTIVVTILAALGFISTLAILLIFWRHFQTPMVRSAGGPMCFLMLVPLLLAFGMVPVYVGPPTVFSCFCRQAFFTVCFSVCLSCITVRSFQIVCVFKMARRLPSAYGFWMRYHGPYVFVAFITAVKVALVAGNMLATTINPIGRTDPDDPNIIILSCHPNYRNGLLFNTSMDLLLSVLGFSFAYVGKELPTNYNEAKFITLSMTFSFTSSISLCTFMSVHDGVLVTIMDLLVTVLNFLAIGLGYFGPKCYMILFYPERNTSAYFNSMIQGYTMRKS
Experimental: We used the chimeric mhT1R3 receptor to produce conventional transgenic animals. The DNA construct was injected into a genetically engineered mouse line that lacks endogenous T1R3 (T1R3KO or T1R3-null). […] We call these mice Line7.
For further crosses, we used the line 7 that has fewer copies of the transgene.
Such compounds may be produced normally in organs (e.g. in testis) or chemically synthesized.

[2] = target: T2, human T1R3 receptor (Homo sapiens, UniProt Q7RTX0); details: cited from earlier work
T2 construct: expressed in transfected cells
T2 sequence (Q7RTX0 21-852): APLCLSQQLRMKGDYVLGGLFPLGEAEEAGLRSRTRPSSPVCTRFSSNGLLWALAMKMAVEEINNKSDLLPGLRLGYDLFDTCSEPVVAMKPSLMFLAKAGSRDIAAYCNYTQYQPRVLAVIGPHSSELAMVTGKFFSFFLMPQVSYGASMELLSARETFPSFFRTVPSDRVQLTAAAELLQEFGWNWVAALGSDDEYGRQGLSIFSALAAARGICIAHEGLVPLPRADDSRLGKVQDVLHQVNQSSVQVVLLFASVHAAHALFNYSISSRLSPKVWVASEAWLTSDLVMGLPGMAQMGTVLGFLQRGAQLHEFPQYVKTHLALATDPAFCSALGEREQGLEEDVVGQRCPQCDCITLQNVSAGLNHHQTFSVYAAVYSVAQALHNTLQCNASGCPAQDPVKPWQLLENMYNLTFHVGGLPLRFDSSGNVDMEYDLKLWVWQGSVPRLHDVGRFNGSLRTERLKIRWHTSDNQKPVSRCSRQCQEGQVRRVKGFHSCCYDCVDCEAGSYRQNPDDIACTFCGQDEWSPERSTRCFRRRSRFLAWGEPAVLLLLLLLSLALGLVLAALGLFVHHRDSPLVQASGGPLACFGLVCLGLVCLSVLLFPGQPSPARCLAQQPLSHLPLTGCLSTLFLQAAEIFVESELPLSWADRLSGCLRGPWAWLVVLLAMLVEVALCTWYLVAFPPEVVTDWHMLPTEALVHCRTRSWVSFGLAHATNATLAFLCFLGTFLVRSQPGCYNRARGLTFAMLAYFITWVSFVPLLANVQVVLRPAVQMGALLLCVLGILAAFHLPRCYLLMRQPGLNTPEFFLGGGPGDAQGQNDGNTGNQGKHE
T2 sequence (Q8TE23 20-839 partner): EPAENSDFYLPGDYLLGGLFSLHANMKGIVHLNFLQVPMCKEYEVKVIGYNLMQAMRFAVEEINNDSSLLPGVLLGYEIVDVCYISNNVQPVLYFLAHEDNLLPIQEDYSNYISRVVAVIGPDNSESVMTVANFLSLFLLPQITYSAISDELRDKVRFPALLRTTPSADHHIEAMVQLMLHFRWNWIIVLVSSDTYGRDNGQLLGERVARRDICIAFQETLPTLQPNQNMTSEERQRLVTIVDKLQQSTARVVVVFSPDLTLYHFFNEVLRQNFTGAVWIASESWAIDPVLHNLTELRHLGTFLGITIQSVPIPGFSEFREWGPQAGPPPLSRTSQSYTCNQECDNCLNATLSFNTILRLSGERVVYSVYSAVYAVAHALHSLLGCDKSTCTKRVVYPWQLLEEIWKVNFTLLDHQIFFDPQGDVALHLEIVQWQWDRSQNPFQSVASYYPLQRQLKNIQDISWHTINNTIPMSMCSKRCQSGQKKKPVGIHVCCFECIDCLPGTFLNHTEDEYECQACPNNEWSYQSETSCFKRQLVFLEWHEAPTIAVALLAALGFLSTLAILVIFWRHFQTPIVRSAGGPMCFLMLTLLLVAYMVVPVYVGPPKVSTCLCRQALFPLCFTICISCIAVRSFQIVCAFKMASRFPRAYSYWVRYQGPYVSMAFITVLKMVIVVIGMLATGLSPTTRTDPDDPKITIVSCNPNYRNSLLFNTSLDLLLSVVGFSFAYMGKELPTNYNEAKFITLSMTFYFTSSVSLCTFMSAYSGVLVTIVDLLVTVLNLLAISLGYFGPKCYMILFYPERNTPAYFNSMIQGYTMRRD

[3] = tested on: PDE; assay: PDE pharmacological block with theophylline in drinking water
[4] = lines 7, 9, 7c expressing humanized receptor

Compound: CC(Oc1ccc(Cl)cc1Cl)C(=O)O (centres unmarked) [2,4-DP, 2-(2,4-dichlorophenoxyl) propionic acid]
- sweet preference of Line 7 mice ([1]; 0.2 mM 2,4-DP): blocked
- sweet responses of the transgenic animals [1, 4]: even more powerful inhibitor

Compound: CC(C)(Oc1ccc(CCNC(=O)c2ccc(Cl)cc2)cc1)C(=O)O [bezafibric acid]
- T1R3 inhibition compared with PPAR-α activation [2]: comparable to their activation of PPAR-α

- preference of transgenic animals for sweetener [1, 4]: modest preference
Compound: OC[C@H]1O[C@H](O[C@]2(CCl)O[C@H](CCl)[C@@H](O)[C@@H]2O)[C@H](O)[C@@H](O)[C@H]1Cl [sucralose]

- preference of transgenic animals for sweetener [1, 4]: strong preference
Compound: OC[C@H]1O[C@@](CO)(O[C@H]2O[C@H](CO)[C@@H](O)[C@H](O)[C@H]2O)[C@@H](O)[C@@H]1O [sucrose]

Compound: Cn1c(=O)c2[nH]cnc2n(C)c1=O [theophylline]
- testis pathology ([3]; T1R3-null animals, theophylline, compared with clofibrate-treated animals): similar, although milder, pathology
- pathology in testis after single block ([3]; control genotypes, theophylline alone, preliminary): no detectable pathology in testis
- adverse effect on health and behavior ([3]; theophylline-treated animals): no obvious adverse effect
